Source: the NIST ThermoML archive (doi:10.1021/je700206y)
± gives the expanded uncertainty stated by the source.

What was measured:
[1] = refractive index (Na D-line) (dimensionless); conditions: 293.2 K; 101.33 kPa; Liquid; Standard Abbe refractometry
[2] = Liquid; for mass density: 293.2 K, 101.33 kPa; for Normal boiling temperature: Distillation
[3] = Boiling temperature at pressure P; conditions: 1.733 kPa; Liquid; Distillation

refractive index [1]	mass density [2] [kg/m3]	Normal boiling temperature [2] [°C]	Boiling temperature at pressure P [3] [°C]	Compound
1.41969 ± 0.00078	1119.13 ± 1.6	196.1 ± 0.2	–	COC(=O)CCC(=O)OC [dimethyl 1,4-butanedioate]
1.42825 ± 0.0007	1061.72 ± 0.56	–	115 ± 1	COC(=O)CCCCC(=O)OC [dimethyl 1,6-hexanedioate]
1.42454 ± 0.0007	1087.67 ± 0.63	214.2 ± 0.2	–	COC(=O)CCCC(=O)OC [dimethyl pentanedioate]
1.37144 ± 0.0007	1220.04 ± 1	101.2 ± 0.2	–	O=CO [formic acid]
